Measured values published in ChEMBL document CHEMBL1143510, “Synthesis and in vitro antitumor activity of 4(3H)-quinazolinone derivatives with dithiocarbamate side chains” (Bioorg Med Chem Lett, 2005).
pIC50: −log10 of the molar value.

System: K562
Test: In vitro cytotoxic concentration measured against human myelogenous leukemia K562 cells
Assay type: functional, cell-based

Compound | pIC50
Cc1nc(O)c2cc(CSC(=S)N3CCN(c4ccc(F)cc4)CC3)ccc2n1 | 6.30
Cc1nc(O)c2cc(CS/C(S)=N/C3CCCCC3)ccc2n1 | 4.51
CCOC(=O)C1(c2ccccc2)CCN(C(=S)SCc2ccc3nc(C)nc(O)c3c2)CC1 | 5.06
Cc1nc(O)c2cc(CSC(=S)N3CCN(C(c4ccc(F)cc4)c4ccc(F)cc4)CC3)ccc2n1 | 5.37
Cc1nc(O)c2cc(CS/C(S)=N/C34CC5CC(CC(C5)C3)C4)ccc2n1 | 4.51
Cc1nc(O)c2cc(CS/C(S)=N/Cc3ccccc3)ccc2n1 | 5.40
Cc1nc(O)c2cc(CS/C(S)=N/CCCN(C)C)ccc2n1 | 4.59
Cc1nc(O)c2cc(CSC(=S)N3CCN(C)CC3)ccc2n1 | 4.97
Cc1nc(O)c2cc(CSC(=S)N3CCOCC3)ccc2n1 | 5.14
Cc1nc(O)c2cc(CSC(=S)N3CC(C)OC(C)C3)ccc2n1 (centres undefined) | 5.43
Cc1nc(O)c2cc(CS/C(S)=N/Cc3ccco3)ccc2n1 | 5.68
CCN(CC)C(=S)SCc1ccc2nc(C)nc(O)c2c1 | 5.36
CCOC(=O)C1CSCN1C(=S)SCc1ccc2nc(C)nc(O)c2c1 (centres undefined) | 4.96
Cc1nc(O)c2cc(CSC(=S)N3CCc4ccccc4C3)ccc2n1 | 5.48
Cc1nc(O)c2cc(CSC(=S)N3CCN(Cc4ccccc4)CC3)ccc2n1 | 5.13
Cc1nc(O)c2cc(CSC(=S)N3CCCCC3)ccc2n1 | 4.95
Cc1nc(O)c2cc(CSC(=S)N(C3CCCCC3)C3CCCCC3)ccc2n1 | 5.12
CSC(=S)NCc1c[nH]c2ccccc12 [BRASSININ] | 3.89
CN(Cc1cnc2nc(N)nc(N)c2n1)c1ccc(C(=O)N[C@@H](CCC(=O)O)C(=O)O)cc1 [METHOTREXATE] | 3.38
